Data published in patent publication US9642920B2, “Therapeutic agent delivery system and method” (Case Western Reserve University, priority 2009, dated 2017).

Assays:
[1] = Surface plasmon resonance affinity between DOX and β-CD; type: binding; settings: HBS-N buffer pH 7.4
Procedure: (§1) Surface plasmon resonance (SPR) spectroscopy was performed on Biacore ×100 to characterize the affinity between DOX and β- and γ-CD. 6-NH2-β- and γ-CD monomers were immobilized onto CM5 sensor chips using amine-coupling chemistry. To optimize immobilization conditions, pH scouting was performed via suspending 0.1 mM of 6-NH2-β- and γ-CD monomers in various pH buffers (borate 8.5, HBS-N 7.4, PBS 7.4, acetate 5) and injecting the suspensions over the sensor chip surface. The carboxylic groups on the sensor chip surface were activated via n injection of 0.4 M EDC/0.1 M NHS. Surface immobilization in flow cell 2 proceeded with an injection of 0.1 mM of 6-amino-6-deoxy-β- or γ-CD monomers suspended in the previously determined optimal buffer, borate 8.5. Blank immobilization was performed in flow cell 1, which was used as a reference flow cell. Finally, unreacted reaction sites in both flow cells were inactivated by an injection of 1 M ethanolamine (pH 8.5). All injections were performed at […] for 7 min.
(§2) Injections of 50 mM sodium hydroxide was used to wash off any bound DOX and regenerate the sensor chip surface in between sample injections. Successful regeneration was confirmed by examining the baseline signal prior to each injection and that after regeneration. […]

U-87 MG cells = assay: Cytotoxicity of DOX against U-87 MG cells; type: cell-based, human; settings: 2 μM of DOX
Procedure: After another 24 hr incubation, 20 μl of a 5 mg/ml MTT solution was added to each well. The cells were incubated for 3 hr and the medium was then replaced by 200 μl of DMSO. After 30 min incubation, the plate was read using Synergy H1 with an absorbance wavelength of 590 nm. The results were normalized to readings from a set of wells with cells treated with no DOX, which represented 100% survival. Percent cell death was defined as 1-percent survival.
A similar procedure was used when testing the cytoxicity of DOX against U-87 MG, a human glioblastoma cell line. However, instead of previously collected DOX solution, DOX solutions at desired concentrations were made fresh for this assay.

[2] = Fluorometry characterization of DOX and CD affinity (β-CD); type: binding; settings: cell culture medium, 37° C.
Procedure: (§3) When DOX, a fluorescent compound, forms an inclusion complex with CD, the fluorescent signal is enhanced (1) due to diminished intermolecular quenching. Increasing the amount of β- and γ-CD monomers (0 mM-16 mM) were added to a constant concentration of DOX in cell culture medium at 37° C. (n=3). Aliquots were taken for fluorescence measurements (Synergy H1) with an excitation and emission wavelength of 498 nm and 590 nm, respectively. Based on a modified Benesi-Hildebrand equation, nonlinear regression analysis was performed in MATLAB to estimate the association constants (Ka).

[3] = Fluorometry characterization of DOX and CD affinity (γ-CD); type: binding; settings: cell culture medium, 37° C.
Procedure: as §3

[4] = Surface plasmon resonance affinity between DOX and γ-CD; type: binding; settings: HBS-N buffer pH 7.4
Procedure: as §1, §2

In the case of `COc1cccc2c1C(=O)c1c(O)c3c(c(O)c1C2=O)C[C@@](O)(C(=O)CO)C[C@@H]3O[C@H]1C[C@H](N)[C@H](O)[C@H](C)O1` [DOX, doxorubicin], the “Association Constant Ka β-CD · DOX” value [1] is reported as 205 ± 5 M⁻¹, the “U-87 MG cells killed” value (U-87 MG cells) is reported as roughly 20% and the “Association Constant Ka β-CD · DOX” value [2] is reported as 153 ± 15 M⁻¹. The “Association Constant Ka γ-CD · DOX” value [3] was 264 ± 20 M⁻¹ and the “Association Constant Ka γ-CD · DOX” value [4] was 490 ± 7 M⁻¹.
